Data: patent US11492359B2, “Near-infrared nerve-sparing fluorophores” (OREGON HEALTH & SCIENCE UNIVERSITY, priority 2018, dated 2022)

Legend:
[1] = UV-Vis absorption and fluorescence spectroscopy of the Oxazine library; type: physicochemical
Outline: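 Absorbance measured at room temperature in 1-cm quartz cuvette, reference corrected; extinction coefficient from Beer's Law plots of absorbance vs concentration. Fluorescence spectra corrected for PMT response; relative quantum yields averaged over multiple measurements against Oxazine 1, Oxazine 170 and Rhodamine 101 references.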

[2] = test system: nerve and muscle tissue; assay: Ex vivo tissue staining nerve-specificity screening
From the text: Oxazine derivative library nerve-specificity screening. All 64 Oxazine derivatives were screened for nerve specificity using a previously described ex vivo tissue staining assay (Gibbs, S. L., et al., PloS one 8, e73493 (2013)). Ex vivo nerve and muscle tissue fluorescence intensities varied, with many compounds showing minimal nerve or muscle tissue fluorescence above control autofluorescence following Oxazine derivative staining. […] All Oxazine derivatives were further screened for nerve-specificity in vivo using both direct and systemic administration strategies. The direct administration strategy enabled quantification of nerve-specificity and contrast following fluorophore contact with the nerves and surrounding tissues without the requirement of BNB penetration, providing the most similar comparison to ex vivo nerve-specificity screening. The systemic administration screening studies required not only nerve specificity, but also adequate biodistribution and BNB penetration to generate SBR for visualization.

[3] = test system: mouse brachial plexus nerves; assay: Nerve imaging at depth under muscle tissue; type: in vivo
Method: Nerve imaging at depth studies using a model Oxazine derivative. Oxazine 4 and LGW01-08 were used to stain mouse brachial plexus nerves using both direct and systemic administration methods using the same dose and administration methods previously described. The ability to image the brachial plexus nerve at depth was assessed under varying thicknesses of mouse muscle tissue. Muscle tissue was resected from the peritoneal muscle layer and measured for thickness. One and two layers of resected peritoneal muscle tissue was placed over the stained nerves, providing one and two mm thick homogenous tissue through which the stained nerve tissue was imaged. The same muscle tissue was used to cover the stained nerves from both fluorophores with care taken to orient the muscle in the same way to ensure equivalent comparison. The imaging system configuration was changed to reflect the 700 nm channel in clinically relevant FGS systems (Tummers et al., Eur J Surg Oncol 40, 850-858 (2014); Troyan et al., Ann Surg Oncol 16, 2943-2952 (2009); Ashitate et al., The Journal of surgical research 176, 7-13 (2012); Verbeek et al., The Journal of urology 190, 574-579 (2013); Hillary et al., Langenbecks Arch Surg 403, 111-118 (2018); and Mery et al., Oncotarget 8, 109559-109574 (2017). For fluorescence excitation, the PhotoFluor II was filtered with a 650±22.5 nm bandpass excitation filter. The resulting fluorescence was collected with a 720±30 nm bandpass emission filter for image collection. Camera exposure times ranged from 0.025-4 s for fluorescence image collection.
Image analysis of intraoperative nerve contrast. Custom written MatLab code was used to analyze the tissue specific fluorescence where regions of interest (ROIs) were selected on the nerve, muscle and adipose tissue using the white light images, but blinded to the fluorescence images. These ROIs were then analyzed on the co-registered, matched fluorescence images permitting assessment of the mean tissue intensities as well as the nerve to muscle (N/M) and nerve to adipose (N/A) ratios. Fluorescence intensity measurements were divided by the exposure time to obtain normalized intensity per second measurements. Mean nerve to background tissue ratios (N/M and N/A) were calculated for each Oxazine derivative. For nerve imaging at depth image analysis, fluorescent line profiles and 3-D intensity topographical plots were generated in ImageJ using the plot profile and surface plot functions, respectively. The line profiles were background and exposure time corrected by dividing by the exposure time of each image and subtracting the average intensity of background pixels from the entire line profile. […]

[4] = reported nerve-specific fluorophores; cited from earlier work

- Max Abs [1]: 618 nm
- Max Em [1]: 634 nm
- Max Ex [1]: 620 nm
- Extinction coefficient ([1]; Beer's Law plots): 77156 M⁻¹ cm⁻¹
- Quantum yield ([1]; relative, references Oxazine 1, Oxazine 170, Rhodamine 101): 38.37%
SMILES: CCN=c1cc2oc3cc(NCC)c(C)cc3nc-2cc1C.[O-][Cl+3]([O-])([O-])O [OX-4, reference compound]
- ex vivo nerve specificity (N/M SBR vs unstained control group) [2]: lacked nerve-specificity ex vivo
- width of smallest nerve branches distinguished under muscle tissue ([3]; direct administration, under 1 mm of muscle tissue): did not possess the ability to resolve smaller branches
- thickness of muscle tissue under which nerve tissue could be identified ([3]; following both systemic and direct administration, 700 nm channel filters): 1 mm
- emission wavelength maximum [4]: 635 nm
